Patent US20120245137A1 (Zalicus Pharmaceuticals Ltd., priority 2009, published 2012)

These molecules were tested against N-type calcium channel subunits (α1B, α2δ, and β3a) (Homo sapiens, UniProt Q00975) (assay: Block of Cav2.2 channel, whole cell voltage clamp, manual and PatchXpress). Details: Table 5; table follows Assay Example 3 (whole cell voltage clamp / PatchXpress); assay not given.
Format: cell-based
Experimental: Cells are grown either on poly-D-lysine coated coverglass (manual EP) or in TIS culture plates (PatchXpress). For the PatchExpress, cells are released from the flask using trypsin. In both cases, the […] solution is (in mM): 130 […], 10 EGTA, 10 HEPES, 2 MgCl2, 3 MgATP, pH 7.3 with CsOH.
Microelectrodes are fabricated from borosilicate glass and fire-polished. […] The reference electrode is a silver-silver chloride pellet. Voltages are not corrected for the liquid junction potential between the internal and external solutions and leak is subtracted using the P/n procedure. Solutions are applied to cells by bath perfusion via gravity. The experimental chamber volume is—0.2 mL. and the perfusion rate is 0.5-2 mL/min. Flow of suction through the chamber is maintained at all times. Measurement of current amplitudes is performed with […] software (HEKA Elektronik).
PatchXpress (Molecular Devices) is a 16-well whole-cell automated patch clamp device that operates asynchronously with fully integrated fluidics. […] Capacitance and series resistance compensation is automated. No correction for liquid junction potentials is employed. Leak is subtracted using the P/n procedure. Compounds are added to cells with a pipettor from a 96-well compound plate. Voltage protocols and the recording of membrane currents are performed using the PatchXpress software/hardware system. Current amplitudes are calculated with DataXpress software.
In both manual and automated patch clamp, cells are voltage clamped at […] or −90 m V and 50 ms pulses to +20 mV are applied every 15 sec (0.067 Hz). Compounds are added in escalating doses to measure % inhibition. Percent inhibition is calculated from the ratio of the curerent amplitude in the presence and absence of compound. When multiple doses are achieved per cell, IC50 values are calculated.

Sequence of N-type calcium channel subunits (α1B, α2δ, and β3a) (Q00975 whole entry): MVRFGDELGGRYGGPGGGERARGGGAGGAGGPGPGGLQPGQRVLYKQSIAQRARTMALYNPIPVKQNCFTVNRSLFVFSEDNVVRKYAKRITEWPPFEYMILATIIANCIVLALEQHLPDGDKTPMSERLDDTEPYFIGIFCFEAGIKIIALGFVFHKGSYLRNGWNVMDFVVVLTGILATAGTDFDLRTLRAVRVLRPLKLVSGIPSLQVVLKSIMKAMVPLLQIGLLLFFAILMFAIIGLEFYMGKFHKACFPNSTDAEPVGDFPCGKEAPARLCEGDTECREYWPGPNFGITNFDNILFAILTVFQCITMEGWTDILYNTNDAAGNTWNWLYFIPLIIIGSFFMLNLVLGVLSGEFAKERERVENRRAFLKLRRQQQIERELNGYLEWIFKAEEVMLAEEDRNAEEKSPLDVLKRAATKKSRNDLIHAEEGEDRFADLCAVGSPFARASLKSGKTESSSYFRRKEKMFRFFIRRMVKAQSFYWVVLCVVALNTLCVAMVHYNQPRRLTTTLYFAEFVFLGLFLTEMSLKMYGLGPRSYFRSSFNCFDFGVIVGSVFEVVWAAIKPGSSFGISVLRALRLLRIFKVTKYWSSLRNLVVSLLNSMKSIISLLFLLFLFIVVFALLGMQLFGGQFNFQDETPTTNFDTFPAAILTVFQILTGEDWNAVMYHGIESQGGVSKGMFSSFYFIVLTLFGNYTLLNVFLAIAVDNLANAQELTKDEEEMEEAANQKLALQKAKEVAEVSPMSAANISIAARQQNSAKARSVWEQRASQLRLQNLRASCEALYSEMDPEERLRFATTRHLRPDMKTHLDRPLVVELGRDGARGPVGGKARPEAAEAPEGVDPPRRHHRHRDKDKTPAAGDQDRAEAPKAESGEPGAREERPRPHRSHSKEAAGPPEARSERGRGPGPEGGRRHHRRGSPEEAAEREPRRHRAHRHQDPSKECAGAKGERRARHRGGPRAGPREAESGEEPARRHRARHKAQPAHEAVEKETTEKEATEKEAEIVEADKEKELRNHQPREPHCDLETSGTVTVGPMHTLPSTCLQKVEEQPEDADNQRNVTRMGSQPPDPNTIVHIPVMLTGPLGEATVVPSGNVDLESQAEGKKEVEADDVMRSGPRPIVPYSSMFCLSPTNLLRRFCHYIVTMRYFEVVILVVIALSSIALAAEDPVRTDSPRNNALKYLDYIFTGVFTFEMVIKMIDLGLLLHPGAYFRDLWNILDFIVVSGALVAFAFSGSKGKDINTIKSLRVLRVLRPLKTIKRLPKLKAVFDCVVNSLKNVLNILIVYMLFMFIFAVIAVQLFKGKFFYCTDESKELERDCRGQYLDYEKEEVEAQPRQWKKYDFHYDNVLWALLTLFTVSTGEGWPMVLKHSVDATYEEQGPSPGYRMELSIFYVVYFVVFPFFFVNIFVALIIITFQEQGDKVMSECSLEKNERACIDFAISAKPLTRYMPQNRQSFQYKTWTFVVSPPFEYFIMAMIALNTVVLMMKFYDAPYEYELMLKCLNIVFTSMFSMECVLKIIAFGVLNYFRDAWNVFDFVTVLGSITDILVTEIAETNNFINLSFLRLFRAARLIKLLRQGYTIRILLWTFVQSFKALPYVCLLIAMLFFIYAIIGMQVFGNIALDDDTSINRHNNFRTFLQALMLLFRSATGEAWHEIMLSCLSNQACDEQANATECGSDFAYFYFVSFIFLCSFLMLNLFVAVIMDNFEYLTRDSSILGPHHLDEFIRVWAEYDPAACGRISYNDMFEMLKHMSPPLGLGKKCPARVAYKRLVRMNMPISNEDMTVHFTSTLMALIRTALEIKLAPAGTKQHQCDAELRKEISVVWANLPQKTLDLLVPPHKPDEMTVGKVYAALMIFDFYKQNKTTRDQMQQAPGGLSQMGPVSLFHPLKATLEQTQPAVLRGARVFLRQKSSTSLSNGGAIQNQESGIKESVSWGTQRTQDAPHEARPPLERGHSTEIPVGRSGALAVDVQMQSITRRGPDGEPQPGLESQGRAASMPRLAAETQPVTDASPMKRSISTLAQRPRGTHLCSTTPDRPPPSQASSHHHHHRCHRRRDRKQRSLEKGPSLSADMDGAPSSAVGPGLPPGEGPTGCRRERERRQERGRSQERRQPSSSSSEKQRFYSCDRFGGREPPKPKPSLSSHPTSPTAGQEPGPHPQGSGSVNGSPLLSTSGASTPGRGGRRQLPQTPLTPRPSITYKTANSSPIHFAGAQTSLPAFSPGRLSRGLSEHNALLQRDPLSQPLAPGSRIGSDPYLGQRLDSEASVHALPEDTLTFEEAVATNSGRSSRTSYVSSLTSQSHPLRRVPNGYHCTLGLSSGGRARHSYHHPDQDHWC
Sequence of N-type calcium channel subunits (α1B, α2δ, and β3a) (P54289 25-1103 partner): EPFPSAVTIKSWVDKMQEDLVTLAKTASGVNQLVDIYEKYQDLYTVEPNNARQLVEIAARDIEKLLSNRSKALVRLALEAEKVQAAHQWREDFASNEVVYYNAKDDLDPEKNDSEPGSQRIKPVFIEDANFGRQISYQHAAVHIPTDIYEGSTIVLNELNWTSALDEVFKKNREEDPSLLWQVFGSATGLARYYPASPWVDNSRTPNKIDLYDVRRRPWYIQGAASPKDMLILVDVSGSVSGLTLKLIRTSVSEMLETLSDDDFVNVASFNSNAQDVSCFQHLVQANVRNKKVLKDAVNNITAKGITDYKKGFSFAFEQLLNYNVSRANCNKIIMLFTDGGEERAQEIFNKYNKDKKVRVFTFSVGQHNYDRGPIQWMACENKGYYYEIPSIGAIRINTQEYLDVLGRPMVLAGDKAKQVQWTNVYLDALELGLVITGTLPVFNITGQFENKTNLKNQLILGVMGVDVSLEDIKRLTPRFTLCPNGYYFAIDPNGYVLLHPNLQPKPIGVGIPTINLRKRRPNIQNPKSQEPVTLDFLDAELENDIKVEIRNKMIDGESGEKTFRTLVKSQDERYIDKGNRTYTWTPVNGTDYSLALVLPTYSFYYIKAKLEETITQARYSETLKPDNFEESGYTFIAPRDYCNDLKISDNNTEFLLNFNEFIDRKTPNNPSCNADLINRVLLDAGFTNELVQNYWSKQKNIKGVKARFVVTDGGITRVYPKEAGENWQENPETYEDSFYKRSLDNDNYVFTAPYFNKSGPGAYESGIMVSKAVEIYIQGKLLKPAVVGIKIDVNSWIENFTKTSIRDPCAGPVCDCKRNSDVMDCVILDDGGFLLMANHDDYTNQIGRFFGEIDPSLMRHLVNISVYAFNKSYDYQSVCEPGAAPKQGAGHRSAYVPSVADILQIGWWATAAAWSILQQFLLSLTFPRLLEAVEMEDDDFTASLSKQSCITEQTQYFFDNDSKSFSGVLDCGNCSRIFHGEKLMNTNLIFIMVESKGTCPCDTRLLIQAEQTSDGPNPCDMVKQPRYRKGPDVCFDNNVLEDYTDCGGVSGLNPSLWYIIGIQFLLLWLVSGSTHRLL
Sequence of N-type calcium channel subunits (α1B, α2δ, and β3a) (P54284 whole entry partner): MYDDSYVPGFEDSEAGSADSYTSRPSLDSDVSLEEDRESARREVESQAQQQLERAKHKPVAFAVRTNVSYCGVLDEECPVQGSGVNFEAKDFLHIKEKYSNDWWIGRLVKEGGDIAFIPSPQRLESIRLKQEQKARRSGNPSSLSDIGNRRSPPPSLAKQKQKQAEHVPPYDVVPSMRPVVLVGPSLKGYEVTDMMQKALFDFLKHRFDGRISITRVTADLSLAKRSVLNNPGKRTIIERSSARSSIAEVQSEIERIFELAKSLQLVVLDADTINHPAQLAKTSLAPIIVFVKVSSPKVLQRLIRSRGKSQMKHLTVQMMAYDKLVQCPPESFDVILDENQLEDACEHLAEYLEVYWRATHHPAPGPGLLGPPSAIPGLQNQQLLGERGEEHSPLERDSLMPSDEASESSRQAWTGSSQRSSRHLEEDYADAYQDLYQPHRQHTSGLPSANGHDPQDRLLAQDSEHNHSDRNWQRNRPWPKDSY

| SMILES | IC50 |
| --- | --- |
| O=C(CN[C@H]1C[C@H](S(=O)(=O)c2cccc(C(F)(F)F)c2)C1)N1CCC(C(F)(F)F)CC1 [Compound 214, 2-(trans-3-(3-(trifluoromethyl)phenylsulfonyl)cyclobutylamino)-1-(4-(trifluoromethyl)piperidin-1-yl)ethanone] | 2090 nM |
| CC(C)(C)NC(=O)CN[C@H]1C[C@H](S(=O)(=O)c2cccc(C(F)(F)F)c2)C1 [Compound 215, N-tert-butyl-2-(trans-3-(3-(trifluoromethyl)phenylsulfonyl)cyclobutylamino)acetamide] | 2810 nM |
| O=C(N[C@H]1C[C@H](S(=O)(=O)c2cccc(C(F)(F)F)c2)C1)c1cc(F)cc(Cl)c1 [Compound 220, 3-chloro-5-fluoro-N-(trans-3-(3-(trifluoromethyl)phenylsulfonyl)cyclobutyl)benzamide] | 3350 nM |
| COc1cc(F)cc(C(=O)N[C@H]2C[C@H](S(=O)(=O)c3cccc(C(F)(F)F)c3)C2)c1 [Compound 222, 3-fluoro-5-methoxy-N-(trans-3-(3-(trifluoromethyl)phenylsulfonyl)cyclobutyl)benzamide] | 2960 nM |
| O=C(N[C@H]1C[C@H](S(=O)(=O)c2cccc(C(F)(F)F)c2)C1)c1ccc(F)c(Cl)c1 [Compound 225, 3-chloro-4-fluoro-N-(trans-3-(3-(trifluoromethyl)phenylsulfonyl)cyclobutyl)benzamide] | 2350 nM |
| Cn1nc(C(F)(F)F)cc1C(=O)N[C@H]1C[C@H](S(=O)(=O)c2cccc(C(F)(F)F)c2)C1 [Compound 226, 1-methyl-3-(trifluoromethyl)-N-(trans-3-(3-(trifluoromethyl)phenylsulfonyl)cyclobutyl)-1H-pyrazole-5-carboxamide] | 2150 nM |
| O=C(NC[C@]1(O)CC[C@@H](S(=O)(=O)c2cccc(C(F)(F)F)c2)CC1)c1ccc(C(F)(F)F)cn1 [Compound 232, N-(((1S,4S)-1-hydroxy-4-(3-(trifluoromethyl)phenylsulfonyl)cyclohexyl)methyl)-5-(trifluoromethyl)picolinamide] | 2660 nM |
| CS(=O)(=O)c1cc(C(F)(F)F)ccc1C(=O)NC[C@]1(O)CC[C@@H](S(=O)(=O)c2cccc(C(F)(F)F)c2)CC1 [Compound 233, N-(((1S,4S)-1-hydroxy-4-(3-(trifluoromethyl)phenylsulfonyl)cyclohexyl)methyl)-2-(methylsulfonyl)-4-(trifluoromethyl)benzamide] | 3570 nM |
| O=C(NC[C@]1(O)CC[C@@H](S(=O)(=O)c2cccc(C(F)(F)F)c2)CC1)c1ccc(C(F)(F)F)nc1 [Compound 235, N-(((1S,4S)-1-hydroxy-4-(3-(trifluoromethyl)phenylsulfonyl)cyclohexyl)methyl)-6-(trifluoromethyl)nicotinamide] | 5940 nM |
| COc1cc(C(=O)NC[C@]2(O)CC[C@@H](S(=O)(=O)c3cccc(C(F)(F)F)c3)CC2)cc(Cl)n1 [Compound 236, 2-chloro-N-(((1S,4S)-1-hydroxy-4-(3-(trifluoromethyl)phenylsulfonyl)cyclohexyl)methyl)-6-methoxyisonicotinamide] | 2100 nM |
| O=C(NC[C@]1(O)CC[C@@H](S(=O)(=O)c2cccc(C(F)(F)F)c2)CC1)c1cc(C(F)(F)F)ccn1 [Compound 237, N-(((1S,4S)-1-hydroxy-4-(3-(trifluoromethyl)phenylsulfonyl)cyclohexyl)methyl)-4-(trifluoromethyl)picolinamide] | 4560 nM |
| O=C1c2ccc(C(F)(F)F)cc2C(=O)N1C1CCC(F)(S(=O)(=O)c2cccc(C(F)(F)F)c2)CC1 [Compound 280, 2-((1S,4S)-4-fluoro-4-(3-(trifluoromethyl)phenylsulfonyl)cyclohexyl)-5-(trifluoromethyl)isoindoline-1,3-dione] | > 10000 nM |
| CC1(NC(=O)c2ccnn2CC(F)(F)F)CCC(S(=O)(=O)c2cccc(C(F)(F)F)c2)CC1 (centres unmarked) [Compound 314, N-(1-methyl-4-(3-(trifluoromethyl)phenylsulfonyl)cyclohexyl)-1-(2,2,2-trifluoroethyl)-1Hpyrazole-5-carboxamide] | 4920 nM |

Molecules with a lower IC50, results first:

| IC50 | SMILES |
| --- | --- |
| 1010 nM | O=C(CN[C@H]1C[C@H](S(=O)(=O)c2cccc(C(F)(F)F)c2)C1)NC1CCCCC1 [Compound 216, N-cyclohexyl-2-(trans-3-(3-(trifluoromethyl)phenylsulfonyl)cyclobutylamino)acetamide] |
| 1500 nM | O=C(N[C@H]1C[C@H](S(=O)(=O)c2cccc(C(F)(F)F)c2)C1)c1ccc(F)c(C(F)(F)F)c1 [Compound 224, 4-fluoro-3-(trifluoromethyl)-N-(trans-3-(3-(trifluoromethyl)phenylsulfonyl)cyclobutyl)benzamide] |
| 1020 nM | COc1cc(F)cc(C(=O)NC[C@]2(O)CC[C@@H](S(=O)(=O)c3cccc(C(F)(F)F)c3)CC2)c1 [Compound 229, 3-fluoro-N-(((1S,4S)-1-hydroxy-4-(3-(trifluoromethyl)phenylsulfonyl)cyclohexyl)methyl)-5-methoxybenzamide] |
| 1870 nM | Cn1nc(C(F)(F)F)cc1C(=O)NC[C@]1(O)CC[C@@H](S(=O)(=O)c2cccc(C(F)(F)F)c2)CC1 [Compound 231, N-(((1S,4S)-1-hydroxy-4-(3-(trifluoromethyl)phenylsulfonyl)cyclohexyl)methyl)-1-methyl-3-(trifluoromethyl)-1H-pyrazole-5-carboxamide] |
| 1010 nM | O=C(N[C@H]1CC[C@@](F)(S(=O)(=O)c2cccc(C(F)(F)F)c2)CC1)c1ccc(O)c(C(F)(F)F)c1 [Compound 247, N-((1S,4S)-4-fluoro-4-(3-(trifluoromethyl)phenylsulfonyl)cyclohexyl)-4-hydroxy-3-(trifluoromethyl)benzamide] |
| 580 nM | O=C(N[C@H]1CC[C@@](F)(S(=O)(=O)c2cccc(C(F)(F)F)c2)CC1)C1CCCCN1 (stereo partly drawn) [Compound 283, N-((1S,4S)-4-fluoro-4-(3-(trifluorornethyl)phenylsulfonyl)cyclohexyl) piperidine-2-carboxamide] |
| 1050 nM | N[C@@H]1CCCC[C@H]1C(=O)N[C@H]1CC[C@@](F)(S(=O)(=O)c2cccc(C(F)(F)F)c2)CC1 [Compound 284, (1R,2R)-2-amino-N-((1S,4S)-4-fluoro-4-(3-(trifluoromethyl)phenylsulfonyl)cyclohexyl) cyclohexanecarboxamide] |
| 260 nM | COc1cc(F)cc(C(=O)NC[C@H]2C[C@H](S(=O)(=O)c3cccc(C(F)(F)F)c3)C2)c1 [Compound 375, 3-fluoro-5-methoxy-N-(((1R,3R)-3-(3-(trifluoromethyl)phenylsulfonyl)cyclobutyl)methyl)benzamide] |
| 540 nM | O=C(NC[C@H]1C[C@H](S(=O)(=O)c2cccc(C(F)(F)F)c2)C1)c1ccc(OCC(F)(F)F)nc1 [Compound 376, 6-(2,2,2-trifluoroethoxy)-N-(((1R,3R)-3-(3-(trifluoromethyl)phenylsulfonyl)cyclobutyl)methyl)nicotinamide] |
| 1630 nM | O=C(NC[C@H]1C[C@H](S(=O)(=O)c2cc(F)cc(C(F)(F)F)c2)C1)c1ccc(C(F)(F)F)cn1 [Compound 390, N-(((1R,3R)-3-(3-fluoro-5-(trifluoromethyl)phenylsulfonyl)cyclobutyl)methyl)-5-(trifluoromethyl) picolinamide] |
| 730 nM | O=C(NC[C@H]1C[C@H](S(=O)(=O)c2cc(F)cc(C(F)(F)F)c2)C1)c1ccc(F)c(Cl)c1 [Compound 391, 3-chloro-4-fluoro-N-(((1R,3R)-3-(3-fluoro-5-(trifluoromethyl)phenylsulfonyl)cyclobutyl)rnethyl)benzamide] |
| 1070 nM | O=C(NC[C@H]1C[C@H](S(=O)(=O)c2cc(F)cc(C(F)(F)F)c2)C1)c1cn2cc(C(F)(F)F)ccc2n1 [Compound 393, N-(((1R,3R)-3-(3-fluoro-5-(trifluoromethyl)phenylsulfonyl)cyclobutyl)methyl)-6-(trifluoromethyl) imidazo[1,2-a]pyridine-2-carboxamide] |
| 510 nM | O=C(NC[C@H]1C[C@H](S(=O)(=O)c2cc(F)cc(C(F)(F)F)c2)C1)c1ccc(Cl)c(OC(F)(F)F)c1 [Compound 394, 4-chloro-N-(((1R,3R)-3-(3-fluoro-5-(trifluoromethyl)phenylsulfonyl)cyclobutyl)methyl)-3-(trifluoromethoxy)benzamide] |
| 750 nM | O=C(NC[C@H]1C[C@H](S(=O)(=O)c2cc(F)cc(C(F)(F)F)c2)C1)c1ccc(Cl)c(Cl)c1 [Compound 395, 3,4-dichloro-N-(((1R,3R)-3-(3-fluoro-5-(trifluoromethyl)phenylsulfonyl)cyclobutyl)methyl)benzamide] |
| 910 nM | O=C(NC[C@H]1C[C@H](S(=O)(=O)c2cc(F)cc(C(F)(F)F)c2)C1)c1cc(C(F)(F)F)ccn1 [Compound 397, N-(((1R,3R)-3-(3-fluoro-5-(trifluoromethyl)phenylsulfonyl)cyclobutyl)methyl)-4-(trifluoromethyl)picolinamide] |
| 740 nM | O=C(NC[C@H]1C[C@H](S(=O)(=O)c2cc(F)cc(C(F)(F)F)c2)C1)c1ccc(OC(F)(F)F)cc1 [Compound 398, N-(((1R,3R)-3-(3-fluoro-5-(trifluoromethyl)phenylsulfonyl)cyclobutyl)methyl)-4-(trifluoromethoxy)benzamide] |
